Patent publication US20260272936A1, “TREATMENT OF CANCER WITH A PARG INHIBITOR” (858 Therapeutics, Inc., priority 2023, published 2026)

Experiments:
[1] = target: T1, DRYK1B (Homo sapiens, UniProt Q9Y463); experiment: Eurofins protein kinase panel at 10 μM; format: biochemical
T1 construct: Eurofins (contract study)
Protocol: (§1) The inhibitory potential of Compound 1 was tested against 38 diverse non-kinase enzymes and 55 receptors, ion channels and neurotransmitter transporters in radioligand competition binding assays using mostly human recombinant proteins. […] Compound 1 was also tested against an additional panel of 468 protein kinases. Studies were performed at Eurofins (Luxembourg City, Luxembourg) using their published assay formats.

[2] = test system: panel of 468 protein kinases (all other kinases tested); experiment: Eurofins protein kinase panel at 10 μM; format: biochemical
Protocol: as §1

[3] = test system: HeLa cells; experiment: MMS-induced nuclear PAR accumulation, immunofluorescence imaging; format: cell-based; details: Homo sapiens, 50 μg/mL MMS, n=26, read-out: Geometric Mean EC50, PAR accumulation
Protocol: (§2) The HeLa (Cat #CCL-2) and OVCAR-3 (Cat #HTB-161) human cancer cell lines were obtained from ATCC (Manassas, Virginia, USA) and the RMUG-S(Cat #IFO50320) and Kuramochi (Cat #JCRB0098) cell lines were obtained from the National Institutes of Biomedical Innovation, Health and Nutrition's Japanese Collection of Research Bioresources (Ibaraki City, Osaka, Japan).
(§3) All cell lines were grown in an incubator at 37° C. in 5% CO2. HeLa cells were cultured in Dulbecco's Modified Medium (DMEM)+glutaMAX™ (Thermo Fisher Scientific, Waltham, MA, USA Cat #10566-016) containing 1% penicillin/streptomycin (pen/strep) (Thermo Fisher Scientific Cat #15070-063), and 10% fetal bovine serum (FBS) (Thermo Fisher Scientific Cat #A31605-02). Kuramochi cells were cultured in RPMI medium+glutaMAX™ (Thermo Fisher Scientific Cat #72400-047), 10% FBS, and 1% pen/strep. RMUG-S cells were cultured in Ham's F12 medium+glutaMAX™ (Thermo Fisher Scientific Cat #31765-035) containing 10% FBS, and 1% pen/strep. OVCAR-3 cells were cultured in RPMI medium+glutaMAX™ containing 20% FBS, 1% pen/strep, and 0.01 mg/mL bovine insulin (MilliporeSigma, Burlington, MA, USA Cat #10516-5ML).
(§4) Compound 1 EC50 values for accumulation of PAR chains were determined using an immunofluorescence high-content imaging assay of PAR staining. Cells were harvested with trypsin (Thermo Fisher Scientific, Cat #25200-056) and plated in black-walled, clear bottom 96-well Corning Costar 3603 plates (VWR, Radnor, PA, USA Cat #29444-008) at 15,000 cells/well in 100 μL normal growth media. The cells were incubated overnight at 37° C., 5% CO2. The following day, a 1000× Compound 1 concentration curve was prepared by serial dilution of Compound 1 in 100% DMSO for twelve concentrations with the highest starting final concentration of 10 μM. The 1000× test compound curve was diluted 1:200 into growth media to prepare a 5× concentration curve in 0.5% DMSO/media before addition of 25 μL of compound or 0.5% DMSO/media alone to each well of the plate. The plate was mixed gently on a plate shaker and then preincubated at 37° C., 5% CO2 for 1 hour. A 2.25× stock of MMS (Sigma Cat #129925-5G) plus Compound 1 in media was prepared by diluting a 100 mg/mL stock of MMS prepared in 100% DMSO into growth media containing 1× Compound 1 compound. […] Nuclear PAR accumulation was evaluated by imaging the plates on an ImageXpress Pico automated cell imaging system (Molecular Devices, San Jose, CA, USA).
(§5) Four fields for each well were acquired at 20× magnification resulting in at least 1,000 cells analyzed per well. Percent PAR positive cells were calculated using CellReporterXpress software (Molecular Devices, San Jose, CA, USA) using nuclei detection by DAPI image segmentation then setting a fluorescence intensity threshold for PAR. […]

[4] = test system: Kuramochi cells; experiment: as above; format: cell-based; details: Homo sapiens, 50 μg/mL MMS, n=3, read-out: Geometric Mean EC50, PAR accumulation
Protocol: as §2, §3, §4, §5

[5] = test system: OVCAR-3 cells; experiment: as above; format: cell-based; details: Homo sapiens; OVCAR-3, 50 μg/mL MMS, n=3; read-out: Geometric Mean EC50, PAR accumulation
Protocol: as §2, §3, §4, §5

[6] = test system: RMUG-S cells; experiment: as above; format: cell-based; details: Homo sapiens, 50 μg/mL MMS, n=3, read-out: Geometric Mean EC50, PAR accumulation
Protocol: as §2, §3, §4, §5

T1 sequence (Q9Y463 whole entry): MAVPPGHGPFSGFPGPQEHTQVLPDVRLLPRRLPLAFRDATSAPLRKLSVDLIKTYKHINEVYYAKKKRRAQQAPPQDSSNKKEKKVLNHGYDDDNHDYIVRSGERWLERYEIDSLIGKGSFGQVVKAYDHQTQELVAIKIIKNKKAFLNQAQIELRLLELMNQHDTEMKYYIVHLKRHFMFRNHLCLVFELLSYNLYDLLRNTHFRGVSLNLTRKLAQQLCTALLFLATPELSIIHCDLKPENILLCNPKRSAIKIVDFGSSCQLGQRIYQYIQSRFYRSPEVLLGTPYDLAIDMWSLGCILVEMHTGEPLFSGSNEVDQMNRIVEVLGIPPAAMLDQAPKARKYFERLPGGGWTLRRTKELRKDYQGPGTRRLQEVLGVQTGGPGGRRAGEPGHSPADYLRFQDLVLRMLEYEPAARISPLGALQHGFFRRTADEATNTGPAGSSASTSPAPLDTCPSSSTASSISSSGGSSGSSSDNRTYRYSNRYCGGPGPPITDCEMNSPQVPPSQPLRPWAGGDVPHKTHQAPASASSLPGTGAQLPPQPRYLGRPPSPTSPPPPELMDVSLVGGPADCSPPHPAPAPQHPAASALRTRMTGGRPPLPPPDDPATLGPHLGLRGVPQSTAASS

With `[2H]C([2H])(c1cnn(C)c1)N1C(=O)c2cc(S(=O)(=O)NC3(C)CC3)ccc2N2C1=NC[C@H]2C` [Compound 1, (R)-1-methyl-4-((1-methyl-1H-pyrazol-4-yl)methyl-d2)-N-(1-methylcyclopropyl)-5-oxo-1,2,4,5-tetrahydroimidazo[1,2-a]quinazoline-7-sulfonamide] the inhibition at 10 µM [1] was 51%, the “% inhibition” value [2] was under 50% and the EC50 [3] was 14 nM. The EC50 [4] was 9 nM, the EC50 [5] was 20 nM and the EC50 [6] was 38 nM.
